Assays:
Assay type in all cases: in vivo
[1] = tested on: barnyardgrass (Echinochloa crus-galli); assay: Test A preemergence soil spray, visual injury rating 0-100; details: 10 days, 0 = no effect, 100 = complete control; for Barnyardgrass plant response rating (0-100): 31 g ai/ha; for Barnyardgrass plant response rating (0 to 100 scale): 125 g ai/ha
Outline: (§1)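 Seeds sown in loam-sand blend got a preemergence directed soil spray, or emerged plants (2-10 cm, one- to two-leaf) got a postemergence spray, of compound in non-phytotoxic solvent with surfactant. After 10 days in greenhouse, injury rated visually versus untreated controls on a 0 (no effect) to 100 (complete control) scale.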

[2] = tested on: blackgrass (Alopecurus myosuroides); assay: as above; details: 10 days, 0 = no effect, 100 = complete control; for Blackgrass plant response rating (0-100): 31 g ai/ha; for Blackgrass plant response rating (0 to 100 scale): 125 g ai/ha
Outline: as §1

corn (Zea mays) [3] = assay: as above; details: 10 days, 0 = no effect, 100 = complete control; for Corn plant response rating (0-100): 31 g ai/ha; for Corn plant response rating (0 to 100 scale): 125 g ai/ha
Outline: as §1

kochia (Bassia scoparia) [4] = assay: as above; details: 10 days, 0 = no effect, 100 = complete control; for Kochia plant response rating (0-100): 31 g ai/ha; for Kochia plant response rating (0 to 100 scale): 125 g ai/ha
Outline: as §1

[5] = tested on: oat, wild (wild oat, Avena fatua); assay: as above; details: 10 days, 0 = no effect, 100 = complete control; for Oat, Wild plant response rating (0-100): 31 g ai/ha; for Oat, Wild plant response rating (0 to 100 scale): 125 g ai/ha
Outline: as §1

[6] = tested on: palmer (palmer amaranth, palmer pigweed, Amaranthus palmeri); assay: as above; details: 10 days, 0 = no effect, 100 = complete control; for Amaranth, Palmer plant response rating (0-100): 31 g ai/ha; for Amaranth, Palmer plant response rating (0 to 100 scale): 125 g ai/ha
Outline: as §1

[7] = tested on: ragweed (common ragweed, Ambrosia artemisiifolia); assay: as above; details: 10 days, 0 = no effect, 100 = complete control; for Ragweed plant response rating (0-100): 31 g ai/ha; for Ragweed plant response rating (0 to 100 scale): 125 g ai/ha
Outline: as §1

[8] = tested on: ryegrass, Italian (italian ryegrass, Lolium multiflorum); assay: as above; details: 10 days, 0 = no effect, 100 = complete control; for Ryegrass, Italian plant response rating (0-100): 31 g ai/ha; for Ryegrass, Italian plant response rating (0 to 100 scale): 125 g ai/ha
Outline: as §1

soybean (Glycine max) [9] = assay: as above; details: 10 days, 0 = no effect, 100 = complete control; for Soybean plant response rating (0-100): 31 g ai/ha; for Soybean plant response rating (0 to 100 scale): 125 g ai/ha
Outline: as §1

[10] = tested on: wheat (Triticum aestivum); assay: as above; details: 10 days, 0 = no effect, 100 = complete control; for Wheat plant response rating (0-100): 31 g ai/ha; for Wheat plant response rating (0 to 100 scale): 125 g ai/ha
Outline: as §1

[11] = tested on: barnyardgrass (Echinochloa crus-galli); assay: Test A postemergence application, visual injury rating 0-100; details: Postemergence
Outline: as §1

[12] = tested on: blackgrass (Alopecurus myosuroides); assay: as above; details: Postemergence
Outline: as §1

corn (Zea mays) [13] = assay: as above; details: Postemergence
Outline: as §1

[14] = tested on: galium (catchweed bedstraw, Galium aparine); assay: as above; details: Postemergence
Outline: as §1

[15] = tested on: horseweed (Erigeron canadensis); assay: as above; details: Postemergence
Outline: as §1

kochia (Bassia scoparia) [16] = assay: as above; details: Postemergence
Outline: as §1

[17] = tested on: oat, wild (wild oat, Avena fatua); assay: as above; details: Postemergence
Outline: as §1

[18] = tested on: palmer (palmer amaranth, palmer pigweed, Amaranthus palmeri); assay: as above; details: Postemergence
Outline: as §1

[19] = tested on: ragweed (common ragweed, Ambrosia artemisiifolia); assay: as above; details: Postemergence
Outline: as §1

[20] = tested on: ryegrass, Italian (italian ryegrass, Lolium multiflorum); assay: as above; details: Postemergence
Outline: as §1

soybean (Glycine max) [21] = assay: as above; details: Postemergence
Outline: as §1

[22] = tested on: wheat (Triticum aestivum); assay: as above; details: Postemergence
Outline: as §1

[23] = tested on: barnyardgrass (Echinochloa crusgalli); assay: Test B flooded paddy test, visual plant response rating 0-100; details: 250 g ai/ha, Flood, applied to paddy water, evaluated after 13 days
Outline: (§2)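 2-leaf plants; flood 3 cm over soil; compound dosed into paddy water; depth kept constant; greenhouse 13 d; visual scoring vs controls. Dash = no result.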

[24] = tested on: ducksalad (Heteranthera limosa); assay: as above; details: 250 g ai/ha, Flood, applied to paddy water, evaluated after 13 days
Outline: as §2

rice (Oryza sativa) = assay: as above; details: 250 g ai/ha, Flood, applied to paddy water, evaluated after 13 days
Outline: as §2

[25] = tested on: sedge, umbrella (small-flower umbrella sedge, Cyperus difformis); assay: as above; details: 250 g ai/ha, Flood, applied to paddy water, evaluated after 13 days
Outline: as §2

[26] = 31 g ai/ha, greenhouse 10 days, 0 no effect, 100 complete control
[27] = 125 g ai/ha, 10 days, 0 is no effect, 100 is complete control

For `CC(C)OC(=O)C1=CCC(NC(=O)C2(C)CN(c3cc(Cl)cc(Cl)c3)C(=O)O2)C1` (stereo not drawn) [Compound 70], the “Barnyardgrass plant response rating (0-100)” value [1] was 30, the “Barnyardgrass plant response rating (0 to 100 scale)” value [1] was 90 and the “Blackgrass plant response rating (0-100)” value [2] was 10. For the same molecule, the “Blackgrass plant response rating (0 to 100 scale)” value [2] was 30, the “Corn plant response rating (0-100)” value (corn (Zea mays) [3]) was 0 and the “Corn plant response rating (0 to 100 scale)” value (corn (Zea mays) [3]) was 20. For the same molecule, the “Kochia plant response rating (0-100)” value (kochia (Bassia scoparia) [4]) was 0, the “Kochia plant response rating (0 to 100 scale)” value (kochia (Bassia scoparia) [4]) was 40 and the “Oat, Wild plant response rating (0-100)” value [5] was 0. The “Oat, Wild plant response rating (0 to 100 scale)” value (from here on “Oat … (0 to 100 scale)”) [5] was 20, the “Amaranth, Palmer plant response rating (0-100)” value [6] was 30 and the “Amaranth, Palmer plant response rating (0 to 100 scale)” value [6] was 90. For the same molecule, the “Ragweed plant response rating (0-100)” value [7] was 10, the “Ragweed plant response rating (0 to 100 scale)” value [7] was 10 and the “Ryegrass, Italian plant response rating (0-100)” value [8] was 0. For the same molecule, the “Ryegrass, Italian plant response rating (0 to 100 scale)” value (from here on “Ryegrass … (0 to 100 scale)”) [8] was 70, the “Soybean plant response rating (0-100)” value (soybean (Glycine max) [9]) was 0 and the “Soybean plant response rating (0 to 100 scale)” value (soybean (Glycine max) [9]) was 30. For the same molecule, the “Wheat plant response rating (0-100)” value [10] was 0, the “Wheat plant response rating (0 to 100 scale)” value [10] was 70 and the “Barnyardgrass plant response rating (0 to 100 scale)” value [11, 26] was 90. For the same molecule, the “Barnyardgrass plant response rating (0 to 100 scale)” value [11, 27] was 90, the “Blackgrass plant response rating (0 to 100 scale)” value [12, 26] was 50 and the “Blackgrass plant response rating (0 to 100 scale)” value [12, 27] was 80. The “Corn plant response rating (0 to 100 scale)” value (corn (Zea mays) [13]; [26]) was 90, the “Corn plant response rating (0 to 100 scale)” value (corn (Zea mays) [13]; [27]) was 100 and the “Galium plant response rating (0 to 100 scale)” value (“Galium plant response rating” below) [14, 26] was 80. For the same molecule, the “Galium plant response rating” value [14, 27] was 80, the “Horseweed plant response rating (0 to 100 scale)” value (“Horseweed plant response rating” below) [15, 26] was 0 and the “Horseweed plant response rating” value [15, 27] was 0. The “Kochia plant response rating (0 to 100 scale)” value (kochia (Bassia scoparia) [16]; [26]) was 80, the “Kochia plant response rating (0 to 100 scale)” value (kochia (Bassia scoparia) [16]; [27]) was 80 and the “Oat … (0 to 100 scale)” value [17, 26] was 30. For the same molecule, the “Oat … (0 to 100 scale)” value [17, 27] was 80, the “Amaranth, Palmer / Pigweed, Palmer plant response rating (0 to 100 scale)” value (shortened to “Amaranth, Palmer / Pigweed”) [18, 26] was 90 and the “Amaranth, Palmer / Pigweed” value [18, 27] was 90. The “Ragweed plant response rating (0 to 100 scale)” value [19, 26] was 0, the “Ragweed plant response rating (0 to 100 scale)” value [19, 27] was 50 and the “Ryegrass … (0 to 100 scale)” value [20, 26] was 70. For the same molecule, the “Ryegrass … (0 to 100 scale)” value [20, 27] was 70, the “Soybean plant response rating (0 to 100 scale)” value (soybean (Glycine max) [21]; [26]) was 80 and the “Soybean plant response rating (0 to 100 scale)” value (soybean (Glycine max) [21]; [27]) was 90. For the same molecule, the “Wheat plant response rating (0 to 100 scale)” value [22, 26] was 80, the “Wheat plant response rating (0 to 100 scale)” value [22, 27] was 90 and the “Plant response rating, Barnyardgrass (0 to 100 scale, 0 is no effect and 100 is complete control)” value [23] was 50. For the same molecule, the “Plant response rating, Ducksalad (0 to 100 scale, 0 is no effect and 100 is complete control)” value [24] was 65, the “Plant response rating, Rice (0 to 100 scale, 0 is no effect and 100 is complete control)” value (rice (Oryza sativa)) was 60 and the “Plant response rating, Sedge, Umbrella (0 to 100 scale, 0 is no effect and 100 is complete control)” value [25] was 98.

In the case of `CC1(C(=O)NC2CC=C(C(=O)OCC(F)(F)F)C2)CN(c2cc(Cl)cc(Cl)c2)C(=O)O1` (stereo not drawn) [Compound 71], the “Barnyardgrass plant response rating (0-100)” value [1] is reported as 50, the “Barnyardgrass plant response rating (0 to 100 scale)” value [1] is reported as 90 and the “Blackgrass plant response rating (0-100)” value [2] is reported as 0. The “Blackgrass plant response rating (0 to 100 scale)” value [2] was 50, the “Corn plant response rating (0-100)” value (corn (Zea mays) [3]) was 30 and the “Corn plant response rating (0 to 100 scale)” value (corn (Zea mays) [3]) was 50. For the same molecule, the “Kochia plant response rating (0-100)” value (kochia (Bassia scoparia) [4]) was 70, the “Kochia plant response rating (0 to 100 scale)” value (kochia (Bassia scoparia) [4]) was 90 and the “Oat, Wild plant response rating (0-100)” value [5] was 20. The “Oat … (0 to 100 scale)” value [5] was 30, the “Amaranth, Palmer plant response rating (0-100)” value [6] was 90 and the “Amaranth, Palmer plant response rating (0 to 100 scale)” value [6] was 100. For the same molecule, the “Ragweed plant response rating (0-100)” value [7] was 0, the “Ragweed plant response rating (0 to 100 scale)” value [7] was 30 and the “Ryegrass, Italian plant response rating (0-100)” value [8] was 40. The “Ryegrass … (0 to 100 scale)” value [8] was 70, the “Soybean plant response rating (0-100)” value (soybean (Glycine max) [9]) was 10 and the “Soybean plant response rating (0 to 100 scale)” value (soybean (Glycine max) [9]) was 70. The “Wheat plant response rating (0-100)” value [10] was 60, the “Wheat plant response rating (0 to 100 scale)” value [10] was 90 and the “Barnyardgrass plant response rating (0 to 100 scale)” value [11, 26] was 90. The “Barnyardgrass plant response rating (0 to 100 scale)” value [11, 27] was 90, the “Blackgrass plant response rating (0 to 100 scale)” value [12, 26] was 80 and the “Blackgrass plant response rating (0 to 100 scale)” value [12, 27] was 90. The “Corn plant response rating (0 to 100 scale)” value (corn (Zea mays) [13]; [26]) was 100, the “Corn plant response rating (0 to 100 scale)” value (corn (Zea mays) [13]; [27]) was 100 and the “Galium plant response rating” value [14, 26] was 80. For the same molecule, the “Galium plant response rating” value [14, 27] was 80, the “Horseweed plant response rating” value [15, 26] was 10 and the “Horseweed plant response rating” value [15, 27] was 70. The “Kochia plant response rating (0 to 100 scale)” value (kochia (Bassia scoparia) [16]; [26]) was 80, the “Kochia plant response rating (0 to 100 scale)” value (kochia (Bassia scoparia) [16]; [27]) was 90 and the “Oat … (0 to 100 scale)” value [17, 26] was 40. For the same molecule, the “Oat … (0 to 100 scale)” value [17, 27] was 90, the “Amaranth, Palmer / Pigweed” value [18, 26] was 90 and the “Amaranth, Palmer / Pigweed” value [18, 27] was 90. For the same molecule, the “Ragweed plant response rating (0 to 100 scale)” value [19, 26] was 60, the “Ragweed plant response rating (0 to 100 scale)” value [19, 27] was 60 and the “Ryegrass … (0 to 100 scale)” value [20, 26] was 60. The “Ryegrass … (0 to 100 scale)” value [20, 27] was 70, the “Soybean plant response rating (0 to 100 scale)” value (soybean (Glycine max) [21]; [26]) was 70 and the “Soybean plant response rating (0 to 100 scale)” value (soybean (Glycine max) [21]; [27]) was 90. For the same molecule, the “Wheat plant response rating (0 to 100 scale)” value [22, 26] was 80, the “Wheat plant response rating (0 to 100 scale)” value [22, 27] was 90 and the “Plant response rating, Barnyardgrass (0 to 100 scale, 0 is no effect and 100 is complete control)” value [23] was 80. For the same molecule, the “Plant response rating, Ducksalad (0 to 100 scale, 0 is no effect and 100 is complete control)” value [24] was 70, the “Plant response rating, Rice (0 to 100 scale, 0 is no effect and 100 is complete control)” value (rice (Oryza sativa)) was 85 and the “Plant response rating, Sedge, Umbrella (0 to 100 scale, 0 is no effect and 100 is complete control)” value [25] was 100.
